Data as given in ChEMBL document CHEMBL1275576, “In vitro activity of tomopenem (CS-023/RO4908463) against anaerobic bacteria” (Antimicrob Agents Chemother, 2009).

What was measured:
Type in all cases: functional
Bacteroides fragilis [1] = assay: Antimicrobial activity against carbapenemase-producing Bacteroides fragilis GAI 30079 by agar dilution method in presence of 5% laked sheep blood
Bacteroides fragilis [2] = assay: Antimicrobial activity against carbapenemase-producing Bacteroides fragilis GAI 30144 by agar dilution method in presence of 5% laked sheep blood
Phocaeicola vulgatus = assay: Antimicrobial activity against Bacteroides vulgatus GAI 0673 by agar dilution method in presence of 5% laked sheep blood
[3] = Antimicrobial activity against Parabacteroides distasonis ATCC 8503 by agar dilution method in presence of 5% laked sheep blood
Bacteroides ovatus = assay: Antimicrobial activity against Bacteroides ovatus ATCC 8483 by agar dilution method in presence of 5% laked sheep blood
[4] = system: Bacteroides thetaiotaomicron; assay: Antimicrobial activity against Bacteroides thetaiotaomicron ATCC 29741 by agar dilution method in presence of 5% laked sheep blood
[5] = system: Bacteroides eggerthii DSM 20697; assay: Antimicrobial activity against Bacteroides eggerthii ATCC 27754 by agar dilution method in presence of 5% laked sheep blood
[6] = system: Campylobacter ureolyticus; assay: Antimicrobial activity against Bacteroides ureolyticus NCTC 10941 by agar dilution method in presence of 5% laked sheep blood
Campylobacter gracilis = assay: Antimicrobial activity against Campylobacter gracilis JCM 8538 by agar dilution method in presence of 5% laked sheep blood
[7] = system: Sutterella wadsworthensis; assay: Antimicrobial activity against Sutterella wadsworthensis ATCC 51579 by agar dilution method in presence of 5% laked sheep blood
Prevotella bivia = assay: Antimicrobial activity against Prevotella bivia ATCC 29303 by agar dilution method in presence of 5% laked sheep blood; settings: DSM 20514
Prevotella buccae = assay: Antimicrobial activity against Prevotella buccae ATCC 33574 by agar dilution method in presence of 5% laked sheep blood; settings: Segatella buccae
Prevotella corporis = assay: Antimicrobial activity against Prevotella corporis GAI 91000 by agar dilution method in presence of 5% laked sheep blood
[8] = system: Bacteroides heparinolyticus; assay: Antimicrobial activity against Prevotella heparinolytica ATCC 35895 by agar dilution method in presence of 5% laked sheep blood
Prevotella intermedia = assay: Antimicrobial activity against Prevotella intermedia ATCC 25611 by agar dilution method in presence of 5% laked sheep blood
Hoylesella oralis = assay: Antimicrobial activity against Prevotella oralis ATCC 33269 by agar dilution method in presence of 5% laked sheep blood
Porphyromonas gingivalis = assay: Antimicrobial activity against Porphyromonas gingivalis ATCC 33277 by agar dilution method in presence of 5% laked sheep blood
Fusobacterium varium = assay: Antimicrobial activity against Fusobacterium varium ATCC 8501 by agar dilution method in presence of 5% laked sheep blood
[9] = system: Fusobacterium necrophorum; assay: Antimicrobial activity against Fusobacterium necrophorum ATCC 25286 by agar dilution method in presence of 5% laked sheep blood
Bilophila wadsworthia = assay: Antimicrobial activity against Bilophila wadsworthia WAL 7959 by agar dilution method in presence of 5% laked sheep blood
Capnocytophaga ochracea = assay: Antimicrobial activity against Capnocytophaga ochracea GAI 5586 by agar dilution method in presence of 5% laked sheep blood
Veillonella parvula = assay: Antimicrobial activity against Veillonella parvula ATCC 10790 by agar dilution method in presence of 5% laked sheep blood
Anaerococcus prevotii = assay: Antimicrobial activity against Anaerococcus prevotii ATCC 9321 by agar dilution method in presence of 5% laked sheep blood
[10] = Antimicrobial activity against Finegoldia magna ATCC 29328 by agar dilution method in presence of 5% laked sheep blood
Parvimonas micra = assay: Antimicrobial activity against Parvimonas micra VPI 5464-1 by agar dilution method in presence of 5% laked sheep blood
Peptoniphilus indolicus = assay: Antimicrobial activity against Peptoniphilus indolicus GAI 0915 by agar dilution method in presence of 5% laked sheep blood
[11] = system: Peptostreptococcus anaerobius; assay: Antimicrobial activity against Peptostreptococcus anaerobius ATCC 27337 by agar dilution method in presence of 5% laked sheep blood
[12] = system: Staphylococcus saccharolyticus; assay: Antimicrobial activity against Staphylococcus saccharolyticus ATCC 14953 by agar dilution method in presence of 5% laked sheep blood
[13] = system: Streptococcus constellatus; assay: Antimicrobial activity against Streptococcus constellatus ATCC 27923 by agar dilution method in presence of 5% laked sheep blood
[14] = system: Enterocloster clostridioformis; assay: Antimicrobial activity against Clostridium clostridioforme NCTC 11224 by agar dilution method in presence of 5% laked sheep blood
Clostridioides difficile = assay: Antimicrobial activity against Clostridium difficile GAI 10029 by agar dilution method in presence of 5% laked sheep blood
Clostridium septicum = assay: Antimicrobial activity against Clostridium septicum ATCC 12464 by agar dilution method in presence of 5% laked sheep blood
Thomasclavelia ramosa = assay: Antimicrobial activity against Clostridium ramosum ATCC 25582 by agar dilution method in presence of 5% laked sheep blood
Schaalia odontolytica = assay: Antimicrobial activity against Actinomyces odontolyticus GAI 91002 by agar dilution method in presence of 5% laked sheep blood
Bifidobacterium bifidum = assay: Antimicrobial activity against Bifidobacterium bifidum JCM 1255 by agar dilution method in presence of 5% laked sheep blood
Cutibacterium acnes = assay: Antimicrobial activity against Propionibacterium acnes ATCC 11828 by agar dilution method in presence of 5% laked sheep blood
[15] = system: Propionibacterium granulosum; assay: Antimicrobial activity against Propionibacterium granulosum ATCC 25564 by agar dilution method in presence of 5% laked sheep blood; settings: Cutibacterium granulosum
[16] = system: Lactobacillus acidophilus; assay: Antimicrobial activity against Lactobacillus acidophilus JCM 1132 by agar dilution method in presence of 5% laked sheep blood
Lacticaseibacillus casei = assay: Antimicrobial activity against Lactobacillus casei subsp. casei JCM 1134 by agar dilution method in presence of 5% laked sheep blood
[17] = system: Limosilactobacillus fermentum; assay: Antimicrobial activity against Lactobacillus fermentum JCM 1173 by agar dilution method in presence of 5% laked sheep blood
[18] = system: Lactiplantibacillus plantarum; assay: Antimicrobial activity against Lactobacillus plantarum JCM 1149 by agar dilution method in presence of 5% laked sheep blood
Lactobacillus salivarius = assay: Antimicrobial activity against Lactobacillus salivarius subsp. salivarius JCM 1231 by agar dilution method in presence of 5% laked sheep blood; settings: Ligilactobacillus salivarius
Bacteroides fragilis [19] = assay: Antimicrobial activity against Bacteroides fragilis ATCC 25285 by agar dilution method in presence of 5% laked sheep blood; settings: NCTC 9343
Bacteroides fragilis [20] = assay: Antimicrobial activity against Bacteroides fragilis NCTC 10581 by agar dilution method in presence of 5% laked sheep blood
Bacteroides fragilis [21] = assay: Antimicrobial activity against Bacteroides fragilis GAI 0558 by agar dilution method in presence of 5% laked sheep blood
Bacteroides fragilis [22] = assay: Antimicrobial activity against Bacteroides fragilis GAI 7955 by agar dilution method in presence of 5% laked sheep blood

Question: For `CC(=N)N1CC[C@H](SC2=C(C(=O)O)N3C(=O)[C@H]([C@@H](C)O)[C@H]3C2)C1`, which MIC (Bacteroides fragilis [1]) is on record?
Answer: Its MIC is > 128 µg/mL.

Question: And the MIC (Bacteroides fragilis [2])?
Answer: Its MIC is > 128 µg/mL.

Question: What about the MIC (Phocaeicola vulgatus) of the same compound?
Answer: The MIC was 0.125 µg/mL.

Question: And the MIC [3]?
Answer: The MIC was 1 µg/mL.

Question: What about the MIC (Bacteroides ovatus) of the same compound?
Answer: Its MIC is 0.5 µg/mL.

Question: And the MIC [4]?
Answer: The MIC was 0.5 µg/mL.

Question: And the MIC [5]?
Answer: Its MIC is 0.25 µg/mL.

Question: What about the MIC [6] of the same compound?
Answer: Its MIC is 0.25 µg/mL.

Question: What about the MIC (Campylobacter gracilis) of the same compound?
Answer: Its MIC is 0.25 µg/mL.

Question: What about the MIC [7] of the same compound?
Answer: Its MIC is 0.5 µg/mL.

Question: And the MIC (Prevotella bivia)?
Answer: The MIC was 0.5 µg/mL.

Question: And the MIC (Prevotella buccae)?
Answer: The MIC was 0.25 µg/mL.

Question: What about the MIC (Prevotella corporis) of the same compound?
Answer: The MIC was 0.125 µg/mL.

Question: And the MIC [8]?
Answer: Its MIC is 0.125 µg/mL.

Question: And the MIC (Prevotella intermedia)?
Answer: The MIC was 0.06 µg/mL.

Question: And the MIC (Hoylesella oralis)?
Answer: Its MIC is 0.06 µg/mL.

Question: And the MIC (Porphyromonas gingivalis)?
Answer: The MIC was 0.03 µg/mL.

Question: And the MIC (Fusobacterium varium)?
Answer: The MIC was 4 µg/mL.

Question: And the MIC [9]?
Answer: The MIC was 0.125 µg/mL.

Question: What about the MIC (Bilophila wadsworthia) of the same compound?
Answer: Its MIC is 0.5 µg/mL.

Question: What about the MIC (Capnocytophaga ochracea) of the same compound?
Answer: Its MIC is 0.125 µg/mL.

Question: What about the MIC (Veillonella parvula) of the same compound?
Answer: Its MIC is 0.125 µg/mL.

Question: What about the MIC (Anaerococcus prevotii) of the same compound?
Answer: The MIC was 0.125 µg/mL.

Question: And the MIC [10]?
Answer: Its MIC is 0.25 µg/mL.

Question: What about the MIC (Parvimonas micra) of the same compound?
Answer: Its MIC is 0.125 µg/mL.

Question: And the MIC (Peptoniphilus indolicus)?
Answer: Its MIC is 0.125 µg/mL.

Question: And the MIC [11]?
Answer: The MIC was 0.125 µg/mL.

Question: And the MIC [12]?
Answer: Its MIC is 0.03 µg/mL.

Question: What about the MIC [13] of the same compound?
Answer: The MIC was 0.25 µg/mL.

Question: What about the MIC [14] of the same compound?
Answer: Its MIC is 0.25 µg/mL.

Question: What about the MIC (Clostridioides difficile) of the same compound?
Answer: The MIC was 4 µg/mL.

Question: What about the MIC (Clostridium septicum) of the same compound?
Answer: The MIC was ≤ 0.015 µg/mL.

Question: And the MIC (Thomasclavelia ramosa)?
Answer: The MIC was 0.25 µg/mL.

Question: And the MIC (Schaalia odontolytica)?
Answer: Its MIC is 0.5 µg/mL.

Question: And the MIC (Bifidobacterium bifidum)?
Answer: The MIC was 0.06 µg/mL.

Question: And the MIC (Cutibacterium acnes)?
Answer: The MIC was 0.125 µg/mL.

Question: What about the MIC [15] of the same compound?
Answer: Its MIC is 0.125 µg/mL.

Question: And the MIC [16]?
Answer: The MIC was 0.25 µg/mL.

Question: And the MIC (Lacticaseibacillus casei)?
Answer: Its MIC is 0.5 µg/mL.

Question: What about the MIC [17] of the same compound?
Answer: The MIC was 0.03 µg/mL.

Question: And the MIC [18]?
Answer: Its MIC is 0.03 µg/mL.

Question: And the MIC (Lactobacillus salivarius)?
Answer: The MIC was 0.25 µg/mL.

Question: What about the MIC (Bacteroides fragilis [19]) of the same compound?
Answer: The MIC was 0.25 µg/mL.

Question: What about the MIC (Bacteroides fragilis [20]) of the same compound?
Answer: The MIC was 0.25 µg/mL.

Question: What about the MIC (Bacteroides fragilis [21]) of the same compound?
Answer: The MIC was 0.5 µg/mL.

Question: What about the MIC (Bacteroides fragilis [22]) of the same compound?
Answer: Its MIC is 4 µg/mL.
